From paper PMC12380226, “Novel strategies for inhibiting SufA protease: the role of ester substituents and biological properties” (Future Medicinal Chemistry, 2025)
Where two headings read alike, the source gives them in different places.

What was measured:
[1] = system: SufA; parameters: method as in PMID 24859537; conditions: cited from earlier work
[2] = system: SufA; parameters: method as in PMID 24859537; conditions: cited from earlier work; remark: listed apart in the source
[3] = system: BALB/3T3; parameters: method as in PMID 24859537; conditions: BALB/3T3 cell line; cited from earlier work
[4] = system: HLMEC; parameters: method as in PMID 24859537; conditions: HLMEC cell line; cited from earlier work
[5] = system: SplA protease; parameters: method as in PMID 24375505; conditions: cited from earlier work
[6] = system: SufA protease; test: SufA inhibition studies (fluorogenic substrate ABZ-Ile-Ser-Lys-ANB, progress curve method); format: biochemical, Finegoldia magna
Experimental: The assays were performed at 37°C with an excitation wavelength of 320 nm for ABZ and an emission wavelength of 410 nm using 96-well microtiter plates (COSTAR, Corning Inc., Gdańsk, Poland) in 0.1 M Tris-HCl (pH 8.0) with 0.01 M KCl. The concentrations of substrate (ABZ-Ile-Ser-Lys-ANB) and SufA protease were 25 µM and 4 µg/mL, respectively. The SufA protease was incubated for 10 min with the tested compound, dissolved in DMSO (inhibitor final concentration ranging from 0 to 300 µM), and then the measurement was taken for 10 min. Each assay was performed in at least duplicate. The inhibitory activity was measured, and the percentage of inhibition was calculated with the equation: % inhibition = RFUtest / RFU− ∗ 100%,
where RFU represents the relative fluorescence units, test refers to the signal from reactions containing an inhibitor, and (-) represents the signal from the control reactions (without an inhibitor). The inhibitory effects of the synthesized compounds were evaluated by means of the progress curve method.
where [P] is the product concentration at time t, vi is the initial velocity, and vs is the steady state velocity. […]

[7] = system: ctDNA; test: DNA intercalation by circular dichroism spectroscopy; format: binding, ox; conditions: inhibitor 100 µM, ctDNA 50 µM, 1% DMSO
Experimental: The measurement parameters were set as follows: the wavelength range was set from 220 nm to 320 nm, step – at every 0.2 nm, and 4 accumulations. Measurements were performed in a Justcode M cuvette with an optical path of 1 mm. 200 μL of the analyzed solution was introduced into the cuvette each time. The apparatus was zeroed using phosphate buffer with the following composition: 150 mM NaCl, 20 mM PB, 1 mM EDTA. Afterward, the samples (maintaining a constant DMSO concentration of 1%) of ctDNA (50 µM), inhibitor (100 µM), and inhibitor (100 µM) with ctDNA (50 µM) were prepared. First, a sample of the ctDNA solution was measured with a CD spectrometer to check the graph for pure DNA. Then, a sample of the inhibitor solution was measured, against which the apparatus was blanked because the inhibitor molecule itself could produce a CD effect, potentially falsifying the results. At the end, a sample of the actual solution containing the inhibitor and ctDNA was measured.

[8] = system: SufA protease; test: Inhibition of SufA-mediated degradation of human fibrinogen (SDS-PAGE); format: biochemical, Finegoldia magna; conditions: SufA 25 µg/mL, inhibitor 1.3 mM, pre-incubation 60 min 37°C, SDS-PAGE reducing
Experimental: (§1) The SufA protease was incubated with the specific SufA inhibitor for 60 min at 37°C, maintaining a constant DMSO concentration of 1%. The reference sample contained an appropriate amount of DMSO instead of the inhibitor. After incubation, fibrinogen and LL-37 proteins were added to each sample of enzyme (25 µg/mL) or enzyme with inhibitor (25 µg/mL, 1.3 mM). Samples were analyzed by PAGE using the standard Laemmli protocol for fibrinogen and the procedure developed by Judd for the LL-37 peptide. Raw gel results of the inhibition of SufA-induced degradation of human fibrinogen and LL-37 by tested inhibitors after SDS-PAGE electrophoresis analysis are presented in Supplementary Biochemical Part S1-S2 and Figures S9–S11.

[9] = system: SufA protease; test: Inhibition of SufA-mediated degradation of human antimicrobial peptide LL-37 (PAGE); format: biochemical, Finegoldia magna; conditions: SufA 25 µg/mL, inhibitor 1.3 mM, pre-incubation 60 min 37°C
Experimental: as §1

[10] = system: E. coli PCM 2561; test: Antibacterial activity, growth reduction (OD600, 24 h); format: cell-based; conditions: Escherichia coli, PCM2561, MH broth
Experimental: (§2) The antibacterial properties of the inhibitors were assessed in Mueller-Hinton (MH) broth at 37°C for E. coli, S. marcescens, and S. aureus. For F. magna, the antibacterial properties of the inhibitors were tested in Todd Hewitt broth at 37°C under anaerobic conditions. An overnight culture of the tested bacteria was diluted 200-fold in fresh medium and incubated at 37°C until the OD600 reached 0.3. Subsequently, 100 µL of the inhibitor and antibiotic control (at concentrations ranging from 0 to 250 µg/mL) were added to 900 µL of bacterial culture, which had been previously diluted to an OD600 of less than 0.01. The resulting samples were incubated for 24 h at 37°C with shaking at 100 rpm. Then, 200 µL of each sample was transferred to a well plate, and the absorbance was measured at a wavelength of 600 nm using a microplate reader. To determine the antibacterial properties of the inhibitors, the data were normalized against a control culture (without inhibitor or antibiotics). The IC50 values were calculated using GraphPad Prism through nonlinear regression, employing the following equation model: Y=YBottom+(YTop−YBottom)/(1+10^∧((LogIC50−X)∗(−1.0))),
(§3) where YBottom and YTop represent the plateaued units of the Y-axis. The IC50 value represents the concentration that produces a half-maximal response between YBottom and YTop, thus measuring the potency of a compound in inhibiting bacterial viability and indicating a 50% reduction in bacterial growth. The effect of gentamicin on bacterial growth reduction, including its IC50 values, can be found in the Supplementary Material (Supplementary Microbiology Part S1, Figures S12)

[11] = system: F. magna PCM 2822; test: as above; format: cell-based; conditions: Finegoldia magna, read-out: IC50 growth reduction
Experimental: as §2, §3

[12] = system: S. aureus PCM 2602; test: as above; format: cell-based; conditions: Staphylococcus aureus, PCM2602, MH broth
Experimental: as §2, §3

[13] = system: S. marcescens PCM 549; test: as above; format: cell-based; conditions: Serratia marcescens, read-out: IC50 growth reduction
Experimental: as §2, §3

[14] = system: E. coli; conditions: read-out: literature IC50; cited from earlier work
[15] = system: S. aureus; conditions: read-out: literature IC50; cited from earlier work

In the case of `N=C(N)c1ccc2cc(C(NC(=O)OCc3ccccc3)P(=O)(Oc3ccccc3)Oc3ccccc3)ccc2c1` (stereo not drawn) [Cbz-6-AmNpth^P(OC6H5)2], the k2/Ki [1] is given as 10,800 M^− 1 s^− 1, the “Inhibition of degradation of fibrinogen” value [2] is given as “completely inhibited the degradation of fibrinogen” and the Cytotoxicity [3] is given as “no significant cytotoxicity”. The Cytotoxicity [4] was “no significant cytotoxicity”.
For `CC(C)CC(NC(=O)C1CCCN1C(=O)C(NC(=O)OCc1ccccc1)C(C)C)P(=O)(Oc1ccc(S(C)(=O)=O)cc1)Oc1ccc(S(C)(=O)=O)cc1` (stereo not drawn) [Cbz-Val-Pro-Leu^P(OC6H4-4-SOOCH3)2], the k2/Ki [5] is given as > 8000 M⁻¹ s⁻¹.
In the case of `CC(C)C(NC(=O)OCc1ccccc1)C(=O)N1CCCC1C(=O)NC(Cc1ccccc1)P(=O)(Oc1ccc(S(C)(=O)=O)cc1)Oc1ccc(S(C)(=O)=O)cc1` (stereo not drawn) [Cbz-Val-Pro-Phe^P(OC6H4-4-SOOCH3)2], the k2/Ki [5] is listed as > 8000 M⁻¹ s⁻¹.
For `CSc1ccc(OP(=O)(Oc2ccc(SC)cc2)C(NC(=O)OCc2ccccc2)c2ccc3cc(C(=N)N)ccc3c2)cc1` (stereo not drawn) [Compound 8a, Cbz-6-AmNphth^P(OC6H4-4-SCH3)2], the k2/Ki ([6]; second-order rate constant, 37°C, pH 8.0) was 1500 M⁻¹ s⁻¹, the “DNA intercalation (change of CD spectrum of ctDNA)” value [7] was “does not induce DNA intercalation” and the “Inhibition of SufA-induced degradation of human fibrinogen” value (from here on “Inhibition … of human fibrinogen”) [8] was “completely prevented fibrinogen degradation”. For the same compound, the “Inhibition of SufA-induced degradation of LL-37” value [9] was “inhibition of LL-37 cleavage”, the IC50 [10] was 28200 nM and the IC50 ([11]; PCM2822, Todd Hewitt broth, anaerobic, 24 h) was 20 nM. For the same compound, the IC50 [12] was 2650 nM and the IC50 ([13]; PCM549, 24 h) was 20 nM.
For `COc1ccc(OP(=O)(Oc2ccc(OC)cc2)C(NC(=O)OCc2ccccc2)c2ccc3cc(C(=N)N)ccc3c2)cc1` (stereo not drawn) [Compound 8b, Cbz-6-AmNphth^P(OC6H4-4-OCH3)2], the “Inhibition … of human fibrinogen” value [8] was “weaker inhibitory effect on fibrinogen degradation”, the IC50 [10] was > 150000 nM and the IC50 ([11]; PCM2822, 24 h) was 40 nM. For the same compound, the IC50 [12] was 19200 nM and the IC50 ([13]; PCM549, 24 h) was 480 nM.
For `COC(=O)c1ccc(OP(=O)(Oc2ccc(C(=O)OC)cc2)C(NC(=O)OCc2ccccc2)c2ccc3cc(C(=N)N)ccc3c2)cc1` (stereo not drawn) [Compound 8c, Cbz-6-AmNphth^P(OC6H4-4-COOCH3)2], the “% SufA inhibition” value ([6]; cmpd. conc. 50 μM) was < 50%, the “Inhibition … of human fibrinogen” value [8] was “weaker inhibitory effect on fibrinogen degradation” and the IC50 [10] was 60900 nM. For the same compound, the IC50 ([11]; PCM2822, 24 h) was 6980 nM, the IC50 [12] was > 150000 nM and the IC50 ([13]; PCM549, 24 h) was < 10 nM.
For `CC1(C)S[C@@H]2[C@H](NC(=O)[C@H](N)c3ccccc3)C(=O)N2[C@H]1C(=O)O` [ampicillin], the IC50 [14] is listed as 10100 nM and the IC50 [15] is listed as 180 nM.
In the case of `O=C(N[C@H](CO)[C@H](O)c1ccc([N+](=O)[O-])cc1)C(Cl)Cl` [chloramphenicol], the IC50 [14] is given as 373000 nM and the IC50 [15] is given as 1590 nM.
In the case of `CNC(C)C1CCC(N)C(OC2C(N)CC(N)C(OC3OCC(C)(O)C(NC)C3O)C2O)O1` (stereo not drawn) [gentamicin, reference compound], the IC50 ([13]; PCM549, MH broth, 24 h) is reported as 251 nM.
